According to ChEMBL document CHEMBL1147193, “New 5-substituted thiazolo[3,2-b][1,2,4]triazol-6-ones: synthesis and anticancer evaluation” (2007):

Columns and labels:
Assay type in all cases: functional
HT-29 = test: Growth inhibition of human HT29 cells after 48 hrs by SRB protein assay; settings: HT-29, 48 h; for TGI: read-out: Log TGI (converted)
DU-145 = test: Growth inhibition of human DU145 cells after 48 hrs by SRB protein assay; settings: DU-145, 48 h; for TGI: read-out: Log TGI (converted)
SF-539 = test: Growth inhibition of human SF539 cells after 48 hrs by SRB protein assay; settings: SF-539, 48 h; for TGI: read-out: Log TGI (converted)
COLO 205 = test: Growth inhibition of human COLO205 cells after 48 hrs by SRB protein assay; settings: COLO 205, 48 h; for TGI: read-out: Log TGI (converted)
SF-268 = test: Growth inhibition of human SF268 cells after 48 hrs by SRB protein assay; settings: SF-268, 48 h; for TGI: read-out: Log TGI (converted)
MDA-MB-435 = test: Growth inhibition of human MDA-MB-435 cells after 48 hrs by SRB protein assay; settings: MDA-MB-435, 48 h; for TGI: read-out: Log TGI (converted)
[1] = Growth inhibition of human MDA-MB-231/ATCC cells after 48 hrs by SRB protein assay; settings: MDA-MB-231, 48 h; for TGI: read-out: Log TGI (converted)
CAKI-1 = test: Growth inhibition of human CAKI1 cells after 48 hrs by SRB protein assay; settings: CAKI-1, 48 h; for TGI: read-out: Log TGI (converted)
NCI-H322M = test: Growth inhibition of human NCI-H322M cells after 48 hrs by SRB protein assay; settings: for TGI: read-out: Log TGI (converted)
OVCAR-3 = test: Growth inhibition of human OVCAR-3 cells after 48 hrs by SRB protein assay; settings: OVCAR-3, 48 h; for TGI: read-out: Log TGI (converted)
BT-549 = test: Growth inhibition of human BT549 cells after 48 hrs by SRB protein assay; settings: BT-549, 48 h; for TGI: read-out: Log TGI (converted)
K562 = test: Growth inhibition of human K562 cells after 48 hrs by SRB protein assay; settings: K562, 48 h; for TGI: read-out: Log TGI (converted)
T47D = test: Growth inhibition of human T47D cells after 48 hrs by SRB protein assay; settings: for TGI: read-out: Log TGI (converted)
SNB-19 = test: Growth inhibition of human SNB19 cells after 48 hrs by SRB protein assay; settings: SNB-19, 48 h; for TGI: read-out: Log TGI (converted)
KM12 = test: Growth inhibition of human KM12 cells after 48 hrs by SRB protein assay; settings: KM12, 48 h; for TGI: read-out: Log TGI (converted)
NCI-H23 = test: Growth inhibition of human NCI-H23 cells after 48 hrs by SRB protein assay; settings: NCI-H23, 48 h; for TGI: read-out: Log TGI (converted)
EKVX = test: Growth inhibition of human EKVX cells after 48 hrs by SRB protein assay; settings: for TGI: read-out: Log TGI (converted)
A498 = test: Growth inhibition of human A498 cells after 48 hrs by SRB protein assay; settings: A498, 48 h; for TGI: read-out: Log TGI (converted)
U-251 = test: Growth inhibition of human U251 cells after 48 hrs by SRB protein assay; settings: U-251, 48 h; for TGI: read-out: Log TGI (converted)
MCF7 = test: Anticancer activity against human MCF7 cells assessed as growth of cells at 100 uM relative to untreated cells
SR = test: Growth inhibition of human SR cells after 48 hrs by SRB protein assay
HL-60 = test: Growth inhibition of human HL60 cells after 48 hrs by SRB protein assay; settings: HL-60, 48 h; for TGI: read-out: Log TGI (converted)
SNB-75 = test: Growth inhibition of human SNB75 cells after 48 hrs by SRB protein assay; settings: SNB-75, 48 h; for TGI: read-out: Log TGI (converted)

## O=C(CC1Sc2ncnn2C1=O)Nc1ccc(Cl)cc1 (stereo not given)
HT-29
  GI50: 28.8 µM
  TGI: 75.9 µM
DU-145
  GI50: > 100 µM
  TGI: > 100 µM
SF-539
  GI50: 31.6 µM
  TGI: 74.1 µM
COLO 205
  GI50: 19.5 µM
  TGI: 47.9 µM
SF-268
  GI50: > 100 µM
  TGI: > 100 µM
MDA-MB-435
  GI50: 55 µM
  TGI: > 100 µM
[1]
  GI50: 31.6 µM
  TGI: 83.2 µM
CAKI-1
  GI50: > 100 µM
  TGI: > 100 µM
NCI-H322M
  GI50: > 100 µM
  TGI: > 100 µM
OVCAR-3
  GI50: 21.9 µM
  TGI: 51.3 µM
BT-549
  GI50: 37.2 µM
  TGI: 95.5 µM
K562
  GI50: 19.1 µM
  TGI: 43.7 µM
T47D
  GI50: 24 µM
  TGI: 61.7 µM
SNB-19
  GI50: > 100 µM
  TGI: > 100 µM
KM12
  GI50: > 100 µM
  TGI: > 100 µM
NCI-H23
  GI50: 23.4 µM
  TGI: 70.8 µM
EKVX
  GI50: > 100 µM
  TGI: > 100 µM
A498
  GI50: > 100 µM
  TGI: > 100 µM
U-251
  GI50: 18.2 µM
  TGI: 33.9 µM
MCF7
  Activity: 0%

## O=c1/c(=C/c2ccc(Cl)cc2)sc2ncnn12
HT-29
  GI50: 15.1 µM
  TGI: 58.9 µM
SR
  GI50: 8.32 µM
SR; read-out: Log TGI (converted)
  TGI: 33.9 µM
DU-145
  GI50: 12.9 µM
  TGI: 32.4 µM
SF-539
  GI50: 10.2 µM
  TGI: 21.9 µM
COLO 205
  GI50: 17 µM
  TGI: 38.9 µM
SF-268
  GI50: 16.2 µM
  TGI: 58.9 µM
MDA-MB-435
  GI50: 12.6 µM
  TGI: 26.9 µM
[1]
  GI50: 19.1 µM
  TGI: 43.7 µM
CAKI-1
  GI50: 19.5 µM
  TGI: 38.9 µM
HL-60
  GI50: 0.537 µM
  TGI: 2.04 µM
NCI-H322M
  GI50: 13.2 µM
  TGI: 26.3 µM
SNB-75
  GI50: 14.1 µM
  TGI: 32.4 µM
OVCAR-3
  GI50: 13.2 µM
  TGI: 30.2 µM
K562
  GI50: 7.59 µM
  TGI: 28.8 µM
T47D
  GI50: 21.4 µM
  TGI: > 100 µM
SNB-19
  GI50: 16.2 µM
  TGI: 32.4 µM
KM12
  GI50: 10.5 µM
  TGI: 25.7 µM
NCI-H23
  GI50: 17.8 µM
  TGI: 38 µM
EKVX
  GI50: 14.5 µM
  TGI: 33.9 µM
A498
  GI50: 19.1 µM
  TGI: 33.1 µM
U-251
  GI50: 10.5 µM
  TGI: 23.4 µM
MCF7
  Activity: 10%

## O=C(CC1Sc2ncnn2C1=O)Nc1ccccc1 (stereo not given)
HT-29
  GI50: > 100 µM
  TGI: > 100 µM
COLO 205
  GI50: 25.7 µM
  TGI: 79.4 µM
SF-268
  GI50: > 100 µM
  TGI: > 100 µM
MDA-MB-435
  GI50: 41.7 µM
  TGI: > 100 µM
[1]
  GI50: 19.1 µM
  TGI: 38.9 µM
CAKI-1
  GI50: 23.4 µM
  TGI: 49 µM
NCI-H322M
  GI50: > 100 µM
  TGI: > 100 µM
SNB-75
  GI50: 31.6 µM
  TGI: 85.1 µM
OVCAR-3
  GI50: 34.7 µM
  TGI: > 100 µM
BT-549
  GI50: 0.339 µM
  TGI: 1 µM
T47D
  GI50: 39.8 µM
  TGI: > 100 µM
SNB-19
  GI50: > 100 µM
  TGI: > 100 µM
KM12
  GI50: > 100 µM
  TGI: > 100 µM
NCI-H23
  GI50: 0.115 µM
  TGI: 9.12 µM
EKVX
  TGI: 64.6 µM
U-251
  GI50: > 100 µM
  TGI: > 100 µM
MCF7
  Activity: 0%

## CCOC(=O)c1ccc(NC(=O)CC2Sc3ncnn3C2=O)cc1 (stereo not given)
HT-29
  GI50: 43.7 µM
  TGI: > 100 µM
COLO 205
  GI50: 21.4 µM
  TGI: 40.7 µM
SF-268
  GI50: > 100 µM
  TGI: > 100 µM
MDA-MB-435
  GI50: > 100 µM
  TGI: > 100 µM
CAKI-1
  GI50: 63.1 µM
  TGI: > 100 µM
HL-60
  GI50: 46.8 µM
  TGI: > 100 µM
NCI-H322M
  GI50: > 100 µM
  TGI: > 100 µM
OVCAR-3
  GI50: 45.7 µM
  TGI: > 100 µM
BT-549
  GI50: 21.9 µM
  TGI: 43.7 µM
K562
  GI50: 95.5 µM
  TGI: > 100 µM
T47D
  GI50: 23.4 µM
  TGI: 57.5 µM
SNB-19
  GI50: > 100 µM
  TGI: > 100 µM
KM12
  GI50: > 100 µM
  TGI: > 100 µM
EKVX
  GI50: 28.2 µM
  TGI: 69.2 µM
U-251
  GI50: > 100 µM
  TGI: > 100 µM
MCF7
  Activity: 0%
